Laboratory results: ChEMBL document CHEMBL5346907, “Discovery of a novel oral type Ⅰ CDK8 inhibitor against acute myeloid leukemia” (Eur J Med Chem, 2023)
The source made the active and inactive calls. The rule behind the calls is not given here.

Assays:
[1] = molecular target: Ephrin type-A receptor 6 (Homo sapiens) (UniProt Q9UF33); assay: Inhibition of EPHA6 (unknown origin) at 1 uM preincubated for 10 mins followed by substrate addition measured for 60 to 120 mins by HTRF assay relative to control; conditions: time 70-130 min
Chain of Ephrin type-A receptor 6 (Homo sapiens) (Q9UF33 whole entry): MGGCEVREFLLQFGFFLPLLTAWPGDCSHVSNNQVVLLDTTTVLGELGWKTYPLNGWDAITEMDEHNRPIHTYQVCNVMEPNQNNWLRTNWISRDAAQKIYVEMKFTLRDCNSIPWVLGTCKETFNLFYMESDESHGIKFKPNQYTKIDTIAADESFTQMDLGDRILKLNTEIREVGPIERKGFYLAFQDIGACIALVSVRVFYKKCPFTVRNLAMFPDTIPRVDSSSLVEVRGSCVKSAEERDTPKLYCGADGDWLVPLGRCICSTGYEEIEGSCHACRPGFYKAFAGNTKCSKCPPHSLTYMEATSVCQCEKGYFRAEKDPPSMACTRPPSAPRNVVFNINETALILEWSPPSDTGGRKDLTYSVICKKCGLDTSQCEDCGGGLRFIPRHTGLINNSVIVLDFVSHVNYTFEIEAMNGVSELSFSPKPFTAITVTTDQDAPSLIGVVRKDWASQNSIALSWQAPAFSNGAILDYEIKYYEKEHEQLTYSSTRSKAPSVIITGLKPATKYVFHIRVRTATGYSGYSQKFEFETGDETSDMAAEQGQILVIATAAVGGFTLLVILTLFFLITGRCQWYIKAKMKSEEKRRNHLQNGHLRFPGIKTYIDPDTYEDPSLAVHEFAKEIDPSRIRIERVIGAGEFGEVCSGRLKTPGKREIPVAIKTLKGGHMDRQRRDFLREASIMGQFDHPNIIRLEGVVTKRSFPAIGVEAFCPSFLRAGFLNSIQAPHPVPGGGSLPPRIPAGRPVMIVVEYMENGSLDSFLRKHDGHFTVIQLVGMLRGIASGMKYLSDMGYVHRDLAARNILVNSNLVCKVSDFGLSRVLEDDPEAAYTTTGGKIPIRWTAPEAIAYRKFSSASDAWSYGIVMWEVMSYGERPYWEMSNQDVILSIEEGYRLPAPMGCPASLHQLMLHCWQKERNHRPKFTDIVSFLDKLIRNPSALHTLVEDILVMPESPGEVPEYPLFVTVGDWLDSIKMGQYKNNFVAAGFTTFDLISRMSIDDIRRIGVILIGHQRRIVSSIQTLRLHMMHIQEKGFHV

[2] = molecular target: Epidermal growth factor receptor (Homo sapiens) (UniProt P00533); assay: Inhibition of EGFR (unknown origin) at 1 uM preincubated for 10 mins followed by substrate addition measured for 60 to 120 mins by HTRF assay relative to control; conditions: time 70-130 min
HL-60 [3] = assay: Induction of apoptosis in human HL-60 cells assessed as viable cells at 10 uM incubated for 48 hrs by annexin V-FITC/PI staining based flow cytometry (reference value: 96.5 %); format: functional; conditions: read-out: Activity
[4] = molecular target: Ephrin type-B receptor 2 (Homo sapiens) (UniProt P29323); assay: Inhibition of EPHB2 (unknown origin) at 1 uM preincubated for 10 mins followed by substrate addition measured for 60 to 120 mins by HTRF assay relative to control; conditions: time 70-130 min
[5] = molecular target: Focal adhesion kinase 1 (Homo sapiens) (UniProt Q05397); assay: Inhibition of FAK (unknown origin) at 1 uM preincubated for 10 mins followed by substrate addition measured for 60 to 120 mins by HTRF assay relative to control; conditions: time 70-130 min
Chain of Focal adhesion kinase 1 (Homo sapiens) (Q05397 2-1052 limits assumed): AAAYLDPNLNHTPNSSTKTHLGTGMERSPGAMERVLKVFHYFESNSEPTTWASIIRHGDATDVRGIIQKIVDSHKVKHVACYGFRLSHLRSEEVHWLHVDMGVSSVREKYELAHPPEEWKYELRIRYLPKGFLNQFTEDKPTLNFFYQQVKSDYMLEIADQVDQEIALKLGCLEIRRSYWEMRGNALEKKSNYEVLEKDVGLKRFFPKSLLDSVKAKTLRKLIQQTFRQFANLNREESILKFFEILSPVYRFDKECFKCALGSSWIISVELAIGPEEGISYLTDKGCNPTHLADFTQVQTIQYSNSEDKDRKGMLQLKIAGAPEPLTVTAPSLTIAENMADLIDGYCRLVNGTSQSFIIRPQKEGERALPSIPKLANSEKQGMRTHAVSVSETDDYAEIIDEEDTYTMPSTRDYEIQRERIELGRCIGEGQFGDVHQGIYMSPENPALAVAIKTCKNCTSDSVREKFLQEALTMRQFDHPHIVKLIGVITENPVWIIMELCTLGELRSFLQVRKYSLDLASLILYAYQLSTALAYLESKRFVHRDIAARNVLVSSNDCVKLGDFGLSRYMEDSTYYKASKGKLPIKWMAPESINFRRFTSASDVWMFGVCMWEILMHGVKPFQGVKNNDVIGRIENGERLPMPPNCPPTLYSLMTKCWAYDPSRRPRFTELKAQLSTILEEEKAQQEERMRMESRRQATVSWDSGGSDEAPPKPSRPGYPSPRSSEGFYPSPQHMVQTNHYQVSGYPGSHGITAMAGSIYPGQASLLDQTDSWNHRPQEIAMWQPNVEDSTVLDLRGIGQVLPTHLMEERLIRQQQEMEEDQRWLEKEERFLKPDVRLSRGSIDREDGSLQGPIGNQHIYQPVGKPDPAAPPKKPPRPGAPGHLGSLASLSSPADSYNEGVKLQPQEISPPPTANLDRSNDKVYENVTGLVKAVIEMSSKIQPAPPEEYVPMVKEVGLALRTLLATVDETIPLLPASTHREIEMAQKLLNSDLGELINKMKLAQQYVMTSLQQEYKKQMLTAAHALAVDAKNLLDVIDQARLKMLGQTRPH

[6] = molecular target: Cyclin-dependent kinase 5/CDK5 activator 1 (Homo sapiens) (UniProt Q00535+Q15078); assay: Inhibition of CDK5/p35NCK (unknown origin) at 1 uM preincubated for 10 mins followed by substrate addition measured for 60 to 120 mins by HTRF assay relative to control; format: protein-complex assay; conditions: time 70-130 min
[7] = molecular target: Protein-tyrosine kinase 2-beta (Homo sapiens) (UniProt Q14289); assay: Inhibition of PYK2 (unknown origin) at 1 uM preincubated for 10 mins followed by substrate addition measured for 60 to 120 mins by HTRF assay relative to control; conditions: time 70-130 min
[8] = Tmax in Sprague-Dawley rat at 2 mg/kg, iv; format: ADME, organism-based; conditions: in vivo
HT-29 = assay: Antiproliferative activity against human HT-29 cells incubated for 48 hrs by CCK8 assay; format: functional
[9] = molecular target: Tyrosine-protein kinase ABL2 (Homo sapiens) (UniProt P42684); assay: Inhibition of ABL2 (unknown origin) at 1 uM preincubated for 10 mins followed by substrate addition measured for 60 to 120 mins by HTRF assay relative to control; conditions: time 70-130 min
[10] = molecular target: Tyrosine-protein kinase ABL1 (Homo sapiens) (UniProt P00519); assay: Inhibition of ABL1 (unknown origin) at 1 uM preincubated for 10 mins followed by substrate addition measured for 60 to 120 mins by HTRF assay relative to control; conditions: time 70-130 min
Chain of Tyrosine-protein kinase ABL1 (Homo sapiens) (P00519 whole entry): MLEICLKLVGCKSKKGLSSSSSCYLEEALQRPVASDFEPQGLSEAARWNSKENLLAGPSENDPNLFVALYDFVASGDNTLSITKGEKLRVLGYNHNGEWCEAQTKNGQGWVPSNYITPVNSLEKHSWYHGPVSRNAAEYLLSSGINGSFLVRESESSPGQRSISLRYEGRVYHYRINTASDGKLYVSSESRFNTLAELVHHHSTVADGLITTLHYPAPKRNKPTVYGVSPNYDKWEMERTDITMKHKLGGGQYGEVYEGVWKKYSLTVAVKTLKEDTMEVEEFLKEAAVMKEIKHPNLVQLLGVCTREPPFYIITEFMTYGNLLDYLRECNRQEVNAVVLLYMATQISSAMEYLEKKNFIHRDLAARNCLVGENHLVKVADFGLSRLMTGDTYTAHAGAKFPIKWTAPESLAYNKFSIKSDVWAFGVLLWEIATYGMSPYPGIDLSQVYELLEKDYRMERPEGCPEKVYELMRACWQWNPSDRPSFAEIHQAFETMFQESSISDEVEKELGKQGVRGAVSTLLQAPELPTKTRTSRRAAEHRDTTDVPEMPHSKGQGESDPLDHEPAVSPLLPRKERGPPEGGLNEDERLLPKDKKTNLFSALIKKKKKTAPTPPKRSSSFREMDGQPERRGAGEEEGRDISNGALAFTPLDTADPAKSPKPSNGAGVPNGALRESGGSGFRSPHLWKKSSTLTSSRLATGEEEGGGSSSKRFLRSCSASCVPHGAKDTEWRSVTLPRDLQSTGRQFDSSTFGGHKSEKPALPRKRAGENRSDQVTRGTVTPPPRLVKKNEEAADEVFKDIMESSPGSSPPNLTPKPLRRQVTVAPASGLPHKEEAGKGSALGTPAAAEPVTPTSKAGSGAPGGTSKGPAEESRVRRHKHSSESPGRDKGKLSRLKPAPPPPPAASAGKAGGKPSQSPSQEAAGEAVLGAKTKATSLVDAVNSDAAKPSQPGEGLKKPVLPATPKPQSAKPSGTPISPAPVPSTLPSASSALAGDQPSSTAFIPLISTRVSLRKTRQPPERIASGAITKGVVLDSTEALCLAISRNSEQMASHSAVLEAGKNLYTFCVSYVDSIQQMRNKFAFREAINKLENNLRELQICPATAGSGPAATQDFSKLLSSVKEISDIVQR

C1498 [11] = assay: Antitumor activity against mouse C1498 cells allografted in AML Balb/C mouse model assessed as reduction in tumor growth at 40 to 80 mg/kg, po administered daily for 15 days measured on every 2 days; format: functional, organism-based; conditions: dose 40-80 mg/kg, time 15.0 day
[12] = molecular target: Ephrin type-B receptor 4 (Homo sapiens) (UniProt P54760); assay: Inhibition of EPHB4 (unknown origin) at 1 uM preincubated for 10 mins followed by substrate addition measured for 60 to 120 mins by HTRF assay relative to control; conditions: time 70-130 min
[13] = molecular target: Tyrosine-protein kinase HCK (Homo sapiens) (UniProt P08631); assay: Inhibition of HCK (unknown origin) at 1 uM preincubated for 10 mins followed by substrate addition measured for 60 to 120 mins by HTRF assay relative to control; conditions: time 70-130 min
Chain of Tyrosine-protein kinase HCK (Homo sapiens) (P08631 2-526 limits assumed): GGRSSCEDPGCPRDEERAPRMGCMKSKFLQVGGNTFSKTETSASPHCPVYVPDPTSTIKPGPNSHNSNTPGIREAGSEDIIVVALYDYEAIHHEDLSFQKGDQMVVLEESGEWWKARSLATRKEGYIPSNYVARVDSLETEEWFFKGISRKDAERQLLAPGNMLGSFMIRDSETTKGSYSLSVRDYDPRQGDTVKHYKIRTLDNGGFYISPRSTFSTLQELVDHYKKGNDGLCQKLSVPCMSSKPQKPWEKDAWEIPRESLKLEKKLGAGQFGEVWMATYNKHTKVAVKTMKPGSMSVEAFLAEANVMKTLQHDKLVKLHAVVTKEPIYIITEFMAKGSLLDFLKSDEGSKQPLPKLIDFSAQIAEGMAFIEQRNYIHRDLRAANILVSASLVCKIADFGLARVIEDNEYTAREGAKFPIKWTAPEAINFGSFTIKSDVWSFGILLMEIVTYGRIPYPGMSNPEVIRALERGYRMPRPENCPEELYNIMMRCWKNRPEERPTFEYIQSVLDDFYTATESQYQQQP

[14] = molecular target: Fibroblast growth factor receptor 1 (Homo sapiens) (UniProt P11362); assay: Inhibition of FGFR1 (unknown origin) at 1 uM preincubated for 10 mins followed by substrate addition measured for 60 to 120 mins by HTRF assay relative to control; conditions: time 70-130 min
Chain of Fibroblast growth factor receptor 1 (Homo sapiens) (P11362 22-822 limits assumed): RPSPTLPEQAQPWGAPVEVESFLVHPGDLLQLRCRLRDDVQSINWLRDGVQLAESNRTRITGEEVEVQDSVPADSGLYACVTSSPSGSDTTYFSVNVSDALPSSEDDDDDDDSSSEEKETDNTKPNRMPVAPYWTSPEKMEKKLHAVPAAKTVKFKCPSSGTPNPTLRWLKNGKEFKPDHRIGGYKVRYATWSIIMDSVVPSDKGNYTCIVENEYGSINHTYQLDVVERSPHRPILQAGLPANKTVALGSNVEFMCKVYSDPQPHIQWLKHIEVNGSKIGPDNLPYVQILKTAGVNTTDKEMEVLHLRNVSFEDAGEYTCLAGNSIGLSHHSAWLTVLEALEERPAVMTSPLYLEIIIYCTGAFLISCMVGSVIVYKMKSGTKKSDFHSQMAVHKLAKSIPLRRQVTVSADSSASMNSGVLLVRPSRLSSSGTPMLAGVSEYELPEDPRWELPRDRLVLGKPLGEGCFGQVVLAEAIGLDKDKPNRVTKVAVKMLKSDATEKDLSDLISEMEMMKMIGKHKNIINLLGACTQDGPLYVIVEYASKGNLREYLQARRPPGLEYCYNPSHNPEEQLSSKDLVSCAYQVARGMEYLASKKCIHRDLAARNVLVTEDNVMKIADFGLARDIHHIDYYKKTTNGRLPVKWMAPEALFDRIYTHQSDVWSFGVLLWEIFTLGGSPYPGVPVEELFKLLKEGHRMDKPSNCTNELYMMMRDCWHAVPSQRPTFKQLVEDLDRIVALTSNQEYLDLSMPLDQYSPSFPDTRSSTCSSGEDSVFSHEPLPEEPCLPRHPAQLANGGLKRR

[15] = molecular target: Insulin-like growth factor 1 receptor (Homo sapiens) (UniProt P08069); assay: Inhibition of IGF1R (unknown origin) at 1 uM preincubated for 10 mins followed by substrate addition measured for 60 to 120 mins by HTRF assay relative to control; conditions: time 70-130 min
[16] = molecular target: Tyrosine-protein kinase receptor TYRO3 (Homo sapiens) (UniProt Q06418); assay: Inhibition of TYRO3 (unknown origin) at 1 uM preincubated for 10 mins followed by substrate addition measured for 60 to 120 mins by HTRF assay relative to control; conditions: time 70-130 min
[17] = molecular target: ALK tyrosine kinase receptor (Homo sapiens) (UniProt Q9UM73); assay: Inhibition of ALK (unknown origin) at 1 uM preincubated for 10 mins followed by substrate addition measured for 60 to 120 mins by HTRF assay relative to control; conditions: time 70-130 min
MOLM-13 = assay: Antiproliferative activity against human MOLM-13 cells incubated for 48 hrs by CCK8 assay; format: functional
[18] = molecular target: Tyrosine-protein kinase TXK (Homo sapiens) (UniProt P42681); assay: Inhibition of TXK (unknown origin) at 1 uM preincubated for 10 mins followed by substrate addition measured for 60 to 120 mins by HTRF assay relative to control; conditions: time 70-130 min
Chain of Tyrosine-protein kinase TXK (Homo sapiens) (P42681 whole entry): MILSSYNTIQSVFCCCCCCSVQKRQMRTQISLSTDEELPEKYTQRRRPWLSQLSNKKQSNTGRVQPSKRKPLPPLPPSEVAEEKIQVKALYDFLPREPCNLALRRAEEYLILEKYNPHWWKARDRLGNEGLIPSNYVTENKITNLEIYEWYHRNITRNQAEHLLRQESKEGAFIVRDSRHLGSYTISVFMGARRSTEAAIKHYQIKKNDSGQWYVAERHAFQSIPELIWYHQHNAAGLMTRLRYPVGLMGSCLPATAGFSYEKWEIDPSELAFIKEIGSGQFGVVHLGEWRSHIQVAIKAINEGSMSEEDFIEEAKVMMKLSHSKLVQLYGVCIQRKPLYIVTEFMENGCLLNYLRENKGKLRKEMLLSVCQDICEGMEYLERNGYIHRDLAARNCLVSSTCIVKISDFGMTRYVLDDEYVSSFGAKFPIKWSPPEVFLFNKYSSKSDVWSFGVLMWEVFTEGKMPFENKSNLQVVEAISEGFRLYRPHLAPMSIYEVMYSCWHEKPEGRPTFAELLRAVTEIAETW

Homo sapiens = species on record: Homo sapiens; assay: Inhibition of FYN a (unknown origin) at 1 uM preincubated for 10 mins followed by substrate addition measured for 60 to 120 mins by HTRF assay relative to control; conditions: time 70-130 min
[19] = molecular target: Tyrosine-protein kinase SRMS (Homo sapiens) (UniProt Q9H3Y6); assay: Inhibition of SRM (unknown origin) at 1 uM preincubated for 10 mins followed by substrate addition measured for 60 to 120 mins by HTRF assay relative to control; conditions: time 70-130 min
[20] = molecular target: Non-receptor tyrosine-protein kinase TYK2 (Homo sapiens) (UniProt P29597); assay: Inhibition of TYK2 (unknown origin) at 1 uM preincubated for 10 mins followed by substrate addition measured for 60 to 120 mins by HTRF assay relative to control; conditions: time 70-130 min
[21] = molecular target: Cytoplasmic tyrosine-protein kinase BMX (Homo sapiens) (UniProt P51813); assay: Inhibition of BMX (unknown origin) at 1 uM preincubated for 10 mins followed by substrate addition measured for 60 to 120 mins by HTRF assay relative to control; conditions: time 70-130 min
C1498 [22] = assay: Downregulation of STAT1 S727 expression in mouse C1498 cells allografted in AML Balb/C mouse model administered orally daily for 15 days measured after 3 weeks by Western blot analysis; format: functional, cell-based; conditions: dose 40-80 mg/kg, route po, time 15.0 day
HL-60 [23] = assay: Induction of apoptosis in human HL-60 cells assessed as necrotic cells at 1 uM incubated for 48 hrs by annexin V-FITC/PI staining based flow cytometry (reference value: 0.26 %); format: functional
[24] = molecular target: Tyrosine-protein kinase receptor UFO (Homo sapiens) (UniProt P30530); assay: Inhibition of AXL (unknown origin) at 1 uM preincubated for 10 mins followed by substrate addition measured for 60 to 120 mins by HTRF assay relative to control; conditions: time 70-130 min
GES1 = assay: Antiproliferative activity against human GES1 cells incubated for 48 hrs by CCK8 assay; format: functional
MDA-MB-231 = assay: Antiproliferative activity against human MDA-MB-231 cells incubated for 48 hrs by CCK8 assay; format: functional
[25] = Acute toxicity in C57BL/6 mouse assessed as histopathological change in kidney at 2000 mg/kg, IG measured for 14 days by H&E staining based analysis; format: organism-based; conditions: in vivo, po, 336 h, time 14 day

## NC(=O)c1cccc(-c2cnc3[nH]ccc3c2)c1
[1]
  inhibition: 0%
[2]
  inhibition: 8.01%
HL-60 [3]
  viability at 10 µM: 37.8%
[4]
  inhibition: 0%
[5]
  inhibition: 6.16%
[6]
  inhibition: 15.8%
[7]
  inhibition: 3.1%
[8]
  Tmax: 4.98 min
HT-29
  GI50: > 50 µM
[9]
  inhibition: 0%
[10]
  inhibition: 0%
C1498 [11]
  Activity: Active
[12]
  inhibition: 0%
[13]
  inhibition: 2.33%
[14]
  inhibition: 28.1%
[15]
  inhibition: 7.77%
[16]
  inhibition: 7%
[17]
  inhibition: 19.1%
MOLM-13
  GI50: 1.57 µM
[18]
  inhibition: 0%
Homo sapiens
  inhibition: 0%
[19]
  inhibition: 0%
[20]
  inhibition: 0%
[21]
  inhibition: 5.13%
C1498 [22]
  Activity: Dose-Dependent Effect
HL-60 [23]
  Activity: 5.04%
[24]
  inhibition: 12.5%
GES1
  GI50: > 100 µM
MDA-MB-231
  GI50: > 50 µM
[25]
  Activity: Non-Toxic
